Data reported in patent publication US7569578B2, “Heterocyclic anti-migraine agents” (Bristol-Meyers Squibb Company, priority 2003, dated 2009).
pIC50: −log10 of the molar value.

Target: T1, Human CGRP1 Receptor (Homo sapiens, UniProt O60894+Q16602)
T1 construct: endogenous in cells; host or cells: SK-N-MC cells (membrane homogenate)
Assay: CGRP Binding Assay ([125I]-CGRP radioligand displacement, SK-N-MC membrane homogenate)
Conditions: [125I]-CGRP displacement, SK-N-MC homogenate, room temperature 2 h; read-out: Human CGRP1 Receptor IC50

T1 sequence (Q16602 23-461): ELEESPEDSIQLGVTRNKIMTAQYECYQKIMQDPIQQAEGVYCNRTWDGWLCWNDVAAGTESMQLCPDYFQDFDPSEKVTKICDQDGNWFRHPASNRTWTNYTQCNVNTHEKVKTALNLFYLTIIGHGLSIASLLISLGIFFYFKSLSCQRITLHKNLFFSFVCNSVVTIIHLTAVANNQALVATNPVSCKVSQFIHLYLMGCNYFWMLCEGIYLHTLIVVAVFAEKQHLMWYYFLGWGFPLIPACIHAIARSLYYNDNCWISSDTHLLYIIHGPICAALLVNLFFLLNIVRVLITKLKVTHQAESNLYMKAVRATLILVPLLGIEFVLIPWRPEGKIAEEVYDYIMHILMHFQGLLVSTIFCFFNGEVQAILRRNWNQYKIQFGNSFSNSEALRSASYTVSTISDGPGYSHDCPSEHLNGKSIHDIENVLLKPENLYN
T1 sequence (O60894 27-148): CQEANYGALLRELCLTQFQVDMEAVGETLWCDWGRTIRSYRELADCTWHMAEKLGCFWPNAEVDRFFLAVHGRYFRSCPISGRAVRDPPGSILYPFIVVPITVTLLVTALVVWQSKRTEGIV

Compound	pIC50
Cc1cc(CC(OC(=O)N2CCC(N3Cc4ccccc4NC3=O)CC2)c2cccc(Br)n2)cc2cn[nH]c12 (racemic) [Example 40, (±)-1-(6-Bromopyridin-2-yl)-2-(7-methyl-1H-indazol-5-yl)ethyl 4-(2-oxo-1,2-dihydroquinazolin-3(4H)-yl)piperidine-1-carboxylate]	> 8.00
Cc1cc(CC(NC(=O)N2CCC(N3Cc4ccccc4NC3=O)CC2)c2nc(Br)c(Br)[nH]2)cc2cn[nH]c12 (racemic) [Example 87, (±)-N-(1-(4,5-Dibromo-1H-imidazol-2-yl)-2-(7-methyl-1H-indazol-5-yl)ethyl)-4-(2-oxo-1,2-dihydroquinazolin-3(4H)-yl)piperidine-1-carboxamide]	> 8.00
Cc1noc(C(CC(=O)N2CCC3(CC2)OC(=O)Nc2ccccc23)Cc2cc(C)c3[nH]ncc3c2)n1 (racemic) [Example 9, (±)-3-{1-[3-(3-Methyl-[1,2,4]oxadiazol-5-yl)-4-(7-methyl-1H-indazol-5-yl)-butyryl]-4,4′-piperidinyl}-1′,2′-dihydro-2′-oxospiro-[4H-3′,1-benzoxazine]	6.00 to 7.00
Cc1cc(CC(NC(=O)N2CCC(N3Cc4ccccc4NC3=O)CC2)c2nccn2-c2ccccc2[N+](=O)[O-])cc2cn[nH]c12 (racemic) [Example 79, (±)-N-(2-(7-Methyl-1H-indazol-5-yl)-1-(1-(2-nitrophenyl)-1H-imidazol-2-yl)ethyl)-4-(2-oxo-1,2-dihydroquinazolin-3(4H)-yl)piperidine-1-carboxamide]	> 8.00
Cc1cc(CC(OC(=O)N2CCC(N3Cc4ccccc4NC3=O)CC2)c2cc(CO)ccn2)cc2cn[nH]c12 (racemic) [Example 46, (±)-1-(4-(Hydroxymethyl)pyridin-2-yl)-2-(7-methyl-1H-indazol-5-yl)ethyl 4-(2-oxo-1,2-dihydroquinazolin-3(4H)-yl)piperidine-1-carboxylate]	> 8.00
Cc1cc(CC(OC(=O)N2CCC(N3Cc4cccc(F)c4NC3=O)CC2)c2cccc(Br)n2)cc2cn[nH]c12 (racemic) [Example 39, (±)-1-(6-Bromopyridin-2-yl)-2-(7-methyl-1H-indazol-5-yl)ethyl 4-(8-fluoro-2-oxo-1,2-dihydroquinazolin-3(4H)-yl)piperidine-1-carboxylate]	> 8.00
(±)-4-(2-Oxo-1,4-dihydro-2H-quinazolin-3-yl)-piperidine-1-carboxylic acid [2-(7-ethyl-3-methyl-1H-indazol-5-yl)-1-pyridin-4-yl methyl-1H-tetrazol-5-yl)-ethyl]-amide [Example 19]	> 8.00
Cc1cc(Cn2ccnc2C(Cc2cc(C)c3[nH]ncc3c2)NC(=O)N2CCC(N3Cc4ccccc4NC3=O)CC2)cc(Cl)n1 (racemic) [Example 93, (±)-N-(1-(1-((2-Chloro-6-methylpyridin-4-yl)methyl)-1H-imidazol-2-yl)-2-(7-methyl-1H-indazol-5-yl)ethyl)-4-(2-oxo-1,2-dihydroquinazolin-3(4H)-yl)piperidine-1-carboxamide]	> 8.00
Cc1cc(Cn2ccnc2C(Cc2cc(C)c3[nH]ncc3c2)NC(=O)N2CCC(N3Cc4ccccc4NC3=O)CC2)ccn1 (racemic) [Example 94, (±)-N-(2-(7-Methyl-1H-indazol-5-yl)-1-(1-((2-methylpyridin-4-yl)methyl)-1H-imidazol-2-yl)ethyl)-4-(2-oxo-1,2-dihydroquinazolin-3(4H)-yl)piperidine-1-carboxamide]	> 8.00
Cc1cc(CC(CC(=O)N2CCC(N3Cc4ccccc4NC3=O)CC2)c2nc(CN3CCCCC3)no2)cc2cn[nH]c12 (racemic) [Example 3, (±)-3-{1-[4-(7-Methyl-1H-indazol-5-yl)-3-(3-piperidin-1-ylmethyl [1,2,4]oxadiazol-5-yl)-butyryl]-piperidin-4-yl}-3,4-dihydro-1H-quinazolin-2-one]	7.00 to 8.00
Cc1cc(CC(NC(=O)N2CCC(N3Cc4cccc(F)c4NC3=O)CC2)c2nnn[nH]2)cc2cn[nH]c12 (racemic) [Example 80, (±)-4-(8-Fluoro-2-oxo-1,2-dihydroquinazolin-3 [4H]-yl)-N-(2{7-methyl-1H-indazol-5-yl}-1-{1H-tetrazol-5-yl}ethyl)piperidin-1-carboxamide]	6.00 to 7.00
Cc1cc(CC(NC(=O)N2CCC(N3Cc4ccccc4NC3=O)CC2)c2nccn2Cc2cccnc2)cc2cn[nH]c12 (racemic) [Example 91, (±)-N-(2-(7-Methyl-1H-indazol-5-yl)-1-(1-(pyridin-3-ylmethyl)-1H-imidazol-2-yl)ethyl)-4-(2-oxo-1,2-dihydroquinazolin-3(4H)-yl)piperidine-1-carboxamide]	> 8.00
Cc1cccc(C(Cc2cc(C)c3[nH]ncc3c2)NC(=O)N2CCC(N3Cc4ccccc4NC3=O)CC2)n1 (racemic) [Example 38, (±)-N-(2-(7-Methyl-1H-indazol-5-yl)-1-(6-methylpyridin-2-yl)ethyl)-4-(2-oxo-1,2-dihydroquinazolin-3(4H)-yl)piperidine-1-carboxamide]	> 8.00
Cc1cc(CC(NC(=O)N2CCC(N3Cc4ccccc4NC3=O)CC2)c2nc(Cc3ccncc3)no2)cc2cn[nH]c12 (racemic) [Example 12, (±)-4-(2-Oxo-1,4-dihydro-2H-quinazolin-3-yl)-piperidine-1-carboxylic acid [2-(7-methyl-1H-indazol-5-yl)-1-(3-pyridin-4-ylmethyl-[1,2,4]oxadiazol-5-yl)-ethyl]-amide]	7.00 to 8.00
Cc1cc(CC(NC(=O)N2CCC(N3Cc4ccccc4NC3=O)CC2)c2nccn2Cc2cccc(C#N)c2)cc2cn[nH]c12 (racemic) [Example 74, (±)-N-(1-(1-(3-Cyanobenzyl)-1H-imidazol-2-yl)-2-(7-methyl-1H-indazol-5-yl)ethyl)-4-(2-oxo-1,2-dihydroquinazolin-3(4H)-yl)piperidine-1-carboxamide]	> 8.00
CC1=CC(CC(CC(=O)N2CCC(N3Cc4ccccc4NC3=O)CC2)c2nccn2Cc2ccc(C(C)(C)C)cc2)=CC2C=NNC12 (stereo not drawn) [Example 95, 3-(1-(3-(1-(4-tert-Butylbenzyl)-1H-imidazol-2-yl)-4-(7-methyl-3a,7a-dihydro-1H-indazol-5-yl)butanoyl)piperidin-4-yl)-3,4-dihydroquinazolin-2(1H)-one]	> 8.00
Cc1cc(CC(NC(=O)N2CCC(N3Cc4ccccc4NC3=O)CC2)c2cc(F)ccn2)cc2cn[nH]c12 (racemic) [Example 33, (±)-N-(1-(4-Fluoropyridin-2-yl)-2-(7-methyl-1H-indazol-5-yl)ethyl)-4-(2-oxo-1,2-dihydroquinazolin-3(4H)-yl)piperidine-1-carboxamide]	> 8.00
Cc1cc(CC(NC(=O)N2CCC(N3Cc4ccccc4NC3=O)CC2)c2nccn2Cc2cccc(C(=O)O)c2)cc2cn[nH]c12 (racemic) [Example 76, (±)-3-((2-(2-(7-Methyl-1H-indazol-5-yl)-1-(4-(2-oxo-1,2-dihydroquinazolin-3(4H)-yl)piperidine-1-carboxamido)ethyl)-1H-imidazol-1-yl)methyl)benzoic acid]	> 8.00
Cc1cc(CC(CC(=O)N2CCC(N3Cc4ccccc4NC3=O)CC2)c2ccc(CO)cn2)cc2cn[nH]c12 (racemic) [Example 27, (±)-3-(1-(3-(5-(Hydroxymethyl)pyridin-2-yl)-4-(7-methyl-1H-indazol-5-yl)butanoyl)piperidin-4-yl)-3,4-dihydroquinazolin-2(1H)-one]	> 8.00
Cc1cc(CC(OC(=O)N2CCC(N3Cc4ccccc4NC3=O)CC2)c2cc3ccccc3o2)cc2cn[nH]c12 (stereo not drawn) [Example 64, 1-(Benzofuran-2-yl)-2-(7-methyl-1H-indazol-5-yl)ethyl 4-(2-oxo-1,2-dihydroquinazolin-3(4H)-yl)piperidine-1-carboxylate]	7.00 to 8.00
Cc1cc(CC(NC(=O)N2CCC(N3Cc4ccccc4NC3=O)CC2)c2ccc3ccccc3n2)cc2cn[nH]c12 (racemic) [Example 34, (±)-N-(2-(7-Methyl-1H-indazol-5-yl)-1-(quinolin-2-yl)ethyl)-4-(2-oxo-1,2-dihydroquinazolin-3(4H)-yl)piperidine-1-carboxamide]	> 8.00
Cc1cc(CC(OC(=O)N2CCC(N3Cc4ccccc4NC3=O)CC2)c2cc(C(=O)O)ccn2)cc2cn[nH]c12 (racemic) [Example 48, (±)-2-(2-(7-Methyl-H-indazol-5-yl)-1-(4-(2-oxo-1,2-dihydroquinazolin-3(4H)-yl)piperidine-1-carbonyloxy)ethyl)isonicotinic acid]	7.00 to 8.00
Cc1cc(CC(OC(=O)N2CCC(N3Cc4cccc(F)c4NC3=O)CC2)c2cccc(Cc3cc(F)cc(F)c3)n2)cc2cn[nH]c12 (racemic) [Example 44, (±)-1-(6-(3,5-Difluorobenzyl)pyridin-2-yl)-2-(7-methyl-1H-indazol-5-yl)ethyl 4-(8-fluoro-2-oxo-1,2-dihydroquinazolin-3(4H)-yl)piperidine-1-carboxylate]	> 8.00
Cc1cc(CC(NC(=O)N2CCC(N3Cc4ccccc4NC3=O)CC2)c2nc(Cc3ccccc3)no2)cc2cn[nH]c12 (racemic) [Example 10, (±)-4-(2-Oxo-1,4-dihydro-2H-quinazolin-3-yl)-piperidine-1-carboxylic acid [1-(3-benzyl-[1,2,4]oxadiazol-5-yl)-2-(7-methyl-1H-indazol-5-yl)-ethyl]-amide]	> 8.00
Cc1cc(CC(CC(=O)N2CCC(N3Cc4ccccc4NC3=O)CC2)c2nc(Cc3ccccc3)no2)cc2cn[nH]c12 (racemic) [Example 2, (±)-3-{1-[3-(3-Benzyl-[1,2,4]oxadiazol-5-yl)-4-(7-methyl-1H-indazol-5-yl)-butyryl]-piperidin-4-yl}-3,4-dihydro-1H-quinazolin-2-one]	> 8.00
Cc1cc(CC(NC(=O)N2CCC(N3Cc4ccccc4NC3=O)CC2)c2cccc(-c3ccccc3)n2)cc2cn[nH]c12 (racemic) [Example 37, (±)-N-(2-(7-Methyl-1H-indazol-5-yl)-1-(6-phenylpyridin-2-yl)ethyl)-4-(2-oxo-1,2-dihydroquinazolin-3(4H)-yl)piperidine-1-carboxamide]	7.00 to 8.00
Cc1cc(C)nc(C(Cc2cc(C)c3[nH]ncc3c2)OC(=O)N2CCC(c3cc4ccccc4[nH]c3=O)CC2)n1 (stereo not drawn) [Example 62, 1-(4,6-Dimethylpyrimidin-2-yl)-2-(7-methyl-1H-indazol-5-yl)ethyl 4-(2-oxo-1,2-dihydroquinolin-3-yl)piperidine-1-carboxylate]	6.00 to 7.00
